This passage reports IC50 results from patent publication US20260159511A1, “SMALL MOLECULE STING ANTAGONISTS” (CURADEV PHARMA PVT. LTD., priority 2021, published 2026).

The experiment deals with IRF pathway in THP1-Dual™ cells, THP-1 (HAQ). The experiment can be described thus: Reporter gene expression assay in THP-1 cells (THP1-Dual, IRF pathway Lucia luciferase reporter, 2′,3′-cGAMP stimulation). The format is cell-based, human. The following applies: Homo sapiens; THP1-Dual cells preincubated with compound 10 minutes, stimulation with 5 μM 2′,3′-cGAMP for 20 hr, QUANTI-Luc readout of the supernatant; read-out: THP-1 (HAQ) Activity (IC50 value range). As for the experimental part:
Reporter Gene Expression Assay in THP-1 Cells
THP1-Dual™ cells (Invivogen) were derived from the human THP-1 monocyte cell line by stable integration of two inducible reporter constructs. As a result, THP1-Dual™ cells allow the simultaneous study of the IRF pathway, by assessing the activity of a secreted luciferase (Lucia) and the NF-κB pathway, by monitoring the activity of secreted SEAP. 5×10^4 THP1-Dual™ cells were seeded in 384-well plates in growth medium and preincubated with novel compounds for 10 minutes followed by stimulation with 5 μM 2′,3′-cGAMP. After 20 hr of stimulation the supernatant was removed and the IRF pathway reporter protein was readily measured in the cell culture supernatant using QUANTI-Luc™ (Invivogen), a luciferase detection reagent on a Spectramax i3X luminometer.
On the technique in general: Reporter assays use an easily measured gene product as a stand-in for the process of interest.

Usually IC50 stands for the concentration that inhibits the measured activity by half. As to `O=C(Nc1ccc2c(c1)N(Cc1ccccc1)C(=O)CS2)Nc1c[nH]c2ccc(F)cc12` [Example 1, 1-(4-benzyl-3-oxo-3,4-dihydro-2H-benzo[b][1,4]thiazin-6-yl)-3-(5-fluoro-1H-indol-3-yl)urea], the half-inhibitory concentration (IC50) was below 1000 nM.
Regarding `O=C(Nc1ccc2c(c1)OCC(=O)N2Cc1c(F)cccc1Cl)Nc1c[nH]c2ccccc12` [Example 2, 1-(4-(2-Chloro-6-fluorobenzyl)-3-oxo-3,4-dihydro-2H-benzo[b][1,4]oxazin-7-yl)-3-(1H-indol-3-yl)urea], the 50% inhibitory concentration (IC50) is below 1000 nM.
Take `O=C(Nc1ccc2c(c1)OCC(=O)N2Cc1ccccc1)Nc1c[nH]c2ccccc12` [Example 3, 1-(4-benzyl-3-oxo-3,4-dihydro-2H-benzo[b][1,4]oxazin-7-yl)-3-(1H-indol-3-yl)urea]: the half-inhibitory concentration (IC50) is below 1000 nM.
On to `O=C(Nc1ccc2c(c1)N(Cc1ccccc1)C(=O)CO2)Nc1c[nH]c2ccccc12` [Example 4, 1-(4-benzyl-3-oxo-3,4-dihydro-2H-benzo[b][1,4]oxazin-6-yl)-3-(1H-indol-3-yl)urea], for which the half-inhibitory concentration (IC50) was below 1000 nM.
As to `O=C(Nc1ccc2c(c1)N(Cc1ccccc1)C(=O)CS2)Nc1c[nH]c2ncc(Cl)cc12` [Example 5, 1-(4-benzyl-3-oxo-3,4-dihydro-2H-benzo[b][1,4]thiazin-6-yl)-3-(5-chloro-1H-pyrrolo[2,3-b]pyridin-3-yl)urea], the IC50 was below 1000 nM.
As for `O=C(Nc1ccc2c(c1)N(Cc1ccccc1)C(=O)CS2)Nc1c[nH]c2ncc(Br)cc12` [Example 6, 1-(4-benzyl-3-oxo-3,4-dihydro-2H-benzo[b][1,4]thiazin-6-yl)-3-(5-bromo-1H-pyrrolo[2,3-b]pyridin-3-yl)urea], the IC50 is below 1000 nM.
For `O=C(Nc1ccc2c(c1)SCC(=O)N2Cc1ccccc1)Nc1c[nH]c2ccccc12` [Example 7, 1-(4-benzyl-3-oxo-3,4-dihydro-2H-benzo[b][1,4]thiazin-7-yl)-3-(1H-indol-3-yl)urea], the IC50 is below 1000 nM.
In the case of `O=C(Nc1ccc2c(c1)N(Cc1c(F)cccc1Cl)C(=O)CO2)Nc1c[nH]c2ccccc12` [Example 8, 1-(4-(2-chloro-6-fluorobenzyl)-3-oxo-3,4-dihydro-2H-benzo[b][1,4]oxazin-6-yl)-3-(1H-indol-3-yl)urea] it was below 1000 nM; in that of `Cc1[nH]c2ccccc2c1NC(=O)Nc1ccc2c(c1)N(Cc1ccccc1)C(=O)CS2` [Example 9, 1-(4-benzyl-3-oxo-3,4-dihydro-2H-benzo[b][1,4]thiazin-6-yl)-3-(2-methyl-1H-indol-3-yl)urea], 1000 to 10000 nM; in that of `O=C(Nc1ccc2c(c1)N(Cc1ccccc1)C(=O)CS2)Nc1c[nH]c2ccc(Cl)cc12` [Example 10, 1-(4-benzyl-3-oxo-3,4-dihydro-2H-benzo[b][1,4]thiazin-6-yl)-3-(5-chloro-1H-indol-3-yl)urea], below 1000 nM.
Consider `O=C(Nc1ccc2c(c1)N(Cc1c(F)cccc1Cl)C(=O)CS2)Nc1c[nH]c2ccccc12` [Example 11, 1-(4-(2-chloro-6-fluorobenzyl)-3-oxo-3,4-dihydro-2H-benzo[b][1,4]thiazin-6-yl)-3-(1H-indol-3-yl)urea], for which the half-maximal inhibitory concentration (IC50) was below 1000 nM.
For the molecule `O=C(Nc1ccc2c(c1)SCC(=O)N2Cc1c(F)cccc1Cl)Nc1c[nH]c2ccccc12` [Example 12, 1-(4-(2-chloro-6-fluorobenzyl)-3-oxo-3,4-dihydro-2H-benzo[b][1,4]thiazin-7-yl)-3-(1H-indol-3-yl)urea], the half-maximal inhibitory concentration (IC50) was below 1000 nM.
For the molecule `O=C(Nc1ccc2c(c1)N(Cc1ccccc1)C(=O)CS2)Nc1c[nH]c2ncccc12` [Example 13, 1-(4-benzyl-3-oxo-3,4-dihydro-2H-benzo[b][1,4]thiazin-6-yl)-3-(1H-pyrrolo[2,3-b]pyridin-3-yl)urea], the IC50 is below 1000 nM.
In the case of `O=C(Nc1ccc2c(c1)N(Cc1ccccc1)C(=O)CS2)Nc1c[nH]c2ccncc12` [Example 14, 1-(4-benzyl-3-oxo-3,4-dihydro-2H-benzo[b][1,4]thiazin-6-yl)-3-(1H-pyrrolo[3,2-c]pyridin-3-yl)urea], the IC50 is 1000 to 10000 nM.
In the case of `O=C(Nc1ccc2c(c1)N(Cc1ccccc1)C(=O)CS2)Nc1c[nH]c2cnccc12` [Example 15, 1-(4-benzyl-3-oxo-3,4-dihydro-2H-benzo[b][1,4]thiazin-6-yl)-3-(1H-pyrrolo[2,3-c]pyridin-3-yl)urea], the IC50 was below 1000 nM.
Consider `CN1C(=O)CSc2ccc(NC(=O)Nc3c[nH]c4ccccc34)cc21` [Example 16, 1-(1H-indol-3-yl)-3-(4-methyl-3-oxo-3,4-dihydro-2H-benzo[b][1,4]thiazin-6-yl)urea], for which the half-inhibitory concentration (IC50) is below 1000 nM.
Next, `O=C(Nc1ccc2c(c1)N(Cc1ccccc1)C(=O)CS2)Nc1c[nH]c2cccnc12` [Example 17, 1-(4-benzyl-3-oxo-3,4-dihydro-2H-benzo[b][1,4]thiazin-6-yl)-3-(1H-pyrrolo[3,2-b]pyridin-3-yl)urea]: 1000 to 10000 nM; `O=C(Nc1ccc2c(c1)N(Cc1cc(F)cc(F)c1)C(=O)CS2)Nc1c[nH]c2ccccc12` [Example 18, 1-(4-(3,5-difluorobenzyl)-3-oxo-3,4-dihydro-2H-benzo[b][1,4]thiazin-6-yl)-3-(1H-indol-3-yl)urea]: below 1000 nM; `O=C(Nc1ccc2c(c1)N(Cc1ccccn1)C(=O)CS2)Nc1c[nH]c2ccccc12` [Example 19, 1-(1H-indol-3-yl)-3-(3-oxo-4-(pyridin-2-ylmethyl)-3,4-dihydro-2H-benzo[b][1,4]thiazin-6-yl)urea]: 1000 to 10000 nM.
As to `O=C(Nc1ccc2c(c1)N(Cc1ccncc1)C(=O)CS2)Nc1c[nH]c2ccccc12` [Example 20, 1-(1H-indol-3-yl)-3-(3-oxo-4-(pyridin-4-ylmethyl)-3,4-dihydro-2H-benzo[b][1,4]thiazin-6-yl)urea], the concentration for half-maximal inhibition (IC50) lay within 1000 to 10000 nM.
Take `NC(=O)c1cccc(CN2C(=O)CSc3ccc(NC(=O)Nc4c[nH]c5ccccc45)cc32)c1` [Example 21, 3-((6-(3-(1H-indol-3-yl)ureido)-3-oxo-2,3-dihydro-4H-benzo[b][1,4]thiazin-4-yl)methyl)benzamide]: the concentration for half-maximal inhibition (IC50) lay in the range of 1000 to 10000 nM.
In the case of `NC(=O)c1ccccc1CN1C(=O)CSc2ccc(NC(=O)Nc3c[nH]c4ccccc34)cc21` [Example 22, 2-((6-(3-(1H-indol-3-yl)ureido)-3-oxo-2,3-dihydro-4H-benzo[b][1,4]thiazin-4-yl)methyl)benzamide] it was 1000 to 10000 nM.
As for `NC(=O)c1ccc(CN2C(=O)CSc3ccc(NC(=O)Nc4c[nH]c5ccccc45)cc32)cc1` [Example 23, 4-((6-(3-(1H-indol-3-yl)ureido)-3-oxo-2,3-dihydro-4H-benzo[b][1,4]thiazin-4-yl)methyl)benzamide], the IC50 lay within 1000 to 10000 nM.
Next, `O=C(Nc1ccc2c(c1)N(Cc1cccnc1)C(=O)CS2)Nc1c[nH]c2ccccc12` [Example 24, 1-(1H-indol-3-yl)-3-(3-oxo-4-(pyridin-3-ylmethyl)-3,4-dihydro-2H-benzo[b][1,4]thiazin-6-yl)urea]: 1000 to 10000 nM.
In the case of `COc1ccc(F)c(CN2C(=O)CSc3ccc(NC(=O)Nc4c[nH]c5ccccc45)cc32)c1Cl` [Example 25, 1-(4-(2-chloro-6-fluoro-3-methoxybenzyl)-3-oxo-3,4-dihydro-2H-benzo[b][1,4]thiazin-6-yl)-3-(1H-indol-3-yl)urea], the IC50 is below 1000 nM.
In the case of `O=C(Nc1ccc2c(c1)N(Cc1noc3ccccc13)C(=O)CS2)Nc1c[nH]c2ccccc12` [Example 26, 1-(4-(benzo[d]isoxazol-3-ylmethyl)-3-oxo-3,4-dihydro-2H-benzo[b][1,4]thiazin-6-yl)-3-(1H-indol-3-yl)urea], the half-inhibitory concentration (IC50) was below 1000 nM.
In the case of `CC1Sc2ccc(NC(=O)Nc3c[nH]c4ccccc34)cc2N(Cc2c(F)cccc2Cl)C1=O` (stereo not drawn) [Example 27, 1-(4-(2-chloro-6-fluorobenzyl)-2-methyl-3-oxo-3,4-dihydro-2H-benzo[b][1,4]thiazin-6-yl)-3-(1H-indol-3-yl)urea] it was below 1000 nM; in that of `O=C(Nc1ccc2c(c1)N(Cc1c(F)cccc1Cl)C(=O)CS2)Nc1c[nH]c2ccc(Cl)cc12` [Example 28, 1-(5-chloro-1H-indol-3-yl)-3-(4-(2-chloro-6-fluorobenzyl)-3-oxo-3,4-dihydro-2H-benzo[b][1,4]thiazin-6-yl)urea], 1000 to 10000 nM.
In the case of `CC1Sc2ccc(NC(=O)Nc3c[nH]c4ccccc34)cc2N(Cc2ccccc2)C1=O` (stereo not drawn) [Example 29, 1-(4-benzyl-2-methyl-3-oxo-3,4-dihydro-2H-benzo[b][1,4]thiazin-6-yl)-3-(1H-indol-3-yl)urea] it was below 1000 nM; in that of `CC1Sc2cc(NC(=O)Nc3c[nH]c4ccccc34)ccc2N(Cc2ccccc2)C1=O` (stereo not drawn) [Example 30, 1-(4-benzyl-2-methyl-3-oxo-3,4-dihydro-2H-benzo[b][1,4]thiazin-7-yl)-3-(1H-indol-3-yl)urea], below 1000 nM.
In the case of `CC1Sc2ccc(NC(=O)Nc3c[nH]c4ccc(F)cc34)cc2N(Cc2cc(F)cc(F)c2)C1=O` (stereo not drawn) [Example 31, 1-(4-(3,5-difluorobenzyl)-2-methyl-3-oxo-3,4-dihydro-2H-benzo[b][1,4]thiazin-6-yl)-3-(5-fluoro-1H-indol-3-yl)urea] it was below 1000 nM; in that of `O=C(Nc1ccc2c(c1)N(Cc1cc(F)cc(F)c1)C(=O)CS2)Nc1c[nH]c2ccc(F)cc12` [Example 32, 1-(4-(3,5-difluorobenzyl)-3-oxo-3,4-dihydro-2H-benzo[b][1,4]thiazin-6-yl)-3-(5-fluoro-1H-indol-3-yl)urea], below 1000 nM; in that of `CC1Sc2ccc(NC(=O)Nc3c[nH]c4ccccc34)cc2N(Cc2cc(F)cc(F)c2)C1=O` (stereo not drawn) [Example 33, 1-(4-(3,5-difluorobenzyl)-2-methyl-3-oxo-3,4-dihydro-2H-benzo[b][1,4]thiazin-6-yl)-3-(1H-indol-3-yl)urea], below 1000 nM.
